# pEC50: −log10 of the molar value. *1 amine or outer side, *2 acyl side, *3 side chain or, on linkers, in order; H or OH if unused. Primed or numbered codes have the meaning given here. Where no end group is shown, it is not given here. [ ]: non-standard residue; d: D form. Atz = (S)-2-amino-3-(1H-1,2,3-triazol-4-yl)propanoyl residue, substituent (PEG) on triazole N1, O=C([C@H](Cc1cn([*:3])nn1)N[*:1])[*:2]; Oic = O=C(O)[C@@H]1C[C@@H]2CCCC[C@@H]2N1; Phe(4-Cl) = N[C@@H](Cc1ccc(Cl)cc1)C(=O)O; hArg = N=C(N)NCCCC[C@H](N)C(=O)O; Cha = N[C@@H](CC1CCCCC1)C(=O)O; pGlu = O=C1CC[C@@H](C(=O)O)N1; PEG10′ = not defined here; Nle = CCCC[C@H](N)C(=O)O; Mpa = O=C(O)CCS
# What was measured:
# human APJ = target: T1, human APJ (Homo sapiens, UniProt P35414); assay: cAMP assay, stable CHO cell line expressing human APJ; assay type: cell-based; conditions: FIG. 5; cAMP seen with either human or rat APJ stable cell lines
# T1 construct: expressed in transfected cells
# T1 sequence (P35414 1-380): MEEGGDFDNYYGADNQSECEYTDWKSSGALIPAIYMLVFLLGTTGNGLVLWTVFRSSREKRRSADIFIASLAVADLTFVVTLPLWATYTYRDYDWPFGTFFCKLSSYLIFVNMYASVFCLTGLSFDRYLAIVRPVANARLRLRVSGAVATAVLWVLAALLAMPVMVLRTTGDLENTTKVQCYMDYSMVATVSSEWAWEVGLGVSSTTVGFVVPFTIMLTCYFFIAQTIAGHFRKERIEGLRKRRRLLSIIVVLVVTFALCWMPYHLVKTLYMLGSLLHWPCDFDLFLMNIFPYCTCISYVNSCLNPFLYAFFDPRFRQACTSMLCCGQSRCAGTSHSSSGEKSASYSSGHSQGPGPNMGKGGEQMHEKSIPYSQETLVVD
# Procedure: Stable CHO cell lines expressing APJ were used for cAMP assays. The cells were incubated with stimulation buffer containing HANK's buffer, forskolin and 0.5 mM IBMX in the absence or presence of various concentrations' of peptides at 37° C. for 45 min. The cAMP level was determined using a cyclic AMP kit (DiscoverX) according to the manufacturer's instructions.
# APJ receptor [1] = target: T2, APJ receptor (Rattus norvegicus, UniProt Q9JHG3); assay: EC50
# T2 construct: expressed in transfected cells; CHO is named only for the cAMP assay
# T2 sequence (Q9JHG3 whole entry, looked up): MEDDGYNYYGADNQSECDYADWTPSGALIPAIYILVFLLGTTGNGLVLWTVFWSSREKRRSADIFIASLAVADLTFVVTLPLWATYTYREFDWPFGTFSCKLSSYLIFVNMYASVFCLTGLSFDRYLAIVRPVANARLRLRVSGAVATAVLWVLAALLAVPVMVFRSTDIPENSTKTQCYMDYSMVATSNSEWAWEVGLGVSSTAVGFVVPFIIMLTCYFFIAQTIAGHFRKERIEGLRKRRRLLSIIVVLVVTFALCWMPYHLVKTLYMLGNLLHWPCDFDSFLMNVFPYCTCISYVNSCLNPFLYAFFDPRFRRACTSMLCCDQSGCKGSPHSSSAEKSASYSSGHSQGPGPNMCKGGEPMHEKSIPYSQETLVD
# Source text: Table printed on a drawing sheet, FIGURE 11
# The patent's description of the figure: FIG. 11. Effects of peptide valency on in vitro activity.
# First copying reader's note: The sheet prints no unit for the EC50 column; the plot under the table ([35S]GTPγS binding, rAPJ stable cell line) is not copied.
# [2] = system: isolated Langendorff rat heart; assay: Langendorff isolated rat heart, hemodynamic cardiac function; conditions: control rats, FIGS. 7 and 8
# Source text: To assess the hemodynamic cardiac function of the peptides a Langendorff isolated heart system was used. The isolated heart from rat provides broad spectrum of measurements that can include biochemical, metabolic, morphological and physiological indices. The limitations/advantages of the method include absence of neurohormonal influences, neural regulation and high coronary flows. Such limitations, however, are offset by the ability to study direct cardiac effects without systemic circulation and a host of peripheral interactions.
# The reproducibility and accuracy of measurements and relatively low costs over in vivo studies for profiling drugs outweigh any limitations of this method. Therefore, this method provides excellent dose-response relationship and sheds critical insight into the pharmacological and physiological properties of the molecules of interest.
# The animals were anesthetized upon administration of 50-100 mg/kg dose of sodium pentobarbital for rat via the intraperitoneal route. The heart was excised and gently cradled between fingers to avoid injury followed by lifting slightly before incising the aorta, vena cava and pulmonary vessels Immediately after excision of the heart with aorta, the heart was mounted onto the cannula in the Langendorff apparatus via the aorta. The heart was perfused with modified oxygenated Krebs-Henseleit buffer pH7.5 and equilibrated with 95% O2/5% CO2 at 37° C. The perfusion was performed at a constant flow of 10 ml/min and paced at 300 bpm. The pressure was measured through a pressure sensing balloon catheter inserted in the LV cavity. The intrinsic inotropy (force of muscle contraction) and lusitropy (cardiac relaxation) effects of the heart were assessed by dp/dtmax and dp/dtmin.
# These figures illustrate improvement in both systolic and diastolic function of normal hearts with peptides of SEQ ID NOs: 23 and 24.
# [3] = system: healthy rats and rats having MI-induced heart failure; assay: In vivo cardiac hemodynamics (Millar PV loop, femoral arterial pressure) in healthy and MI-induced heart failure rats; set-up: species or system rat; conditions: for mean dp/dt max increase: intravenous infusion, FIG. 9
# Procedure: The cardiac function of healthy rats and the rats having MI (myocardial infarction)-induced heart failure was measured via the Millar PV loop system and femoral arterial pressure catheter were examined.
# Male Lewis rats at 2-3 months of age were used for the studies. MI was induced by ligation of the left anterior descending coronary artery (LAD). Echocardiography was performed at 1 week post-MI for animal enrollment. If ejection fraction (EF) was more than 40% and no infarct was identified from echocardiography images, these animals were excluded from the study. The Millar PV loop catheter was inserted into the right common carotid artery and then advanced to the left ventricle (LV) for cardiovascular hemodynamic assessment. The arterial pressure catheter was inserted into a femoral artery for peripheral blood pressure monitoring.
# Experiments were performed either on six-seven weeks post-MI rat, or healthy rats. […] Test articles were given intravenously via jugular vein, and 3 sets of peptide doses were used in the experiment. […] At the end of the experiment, the infarct size was verified by gross morphology if MI rats were used in the study.
# Animals in MI groups had very similar infarct size (38-39% of LV) among the groups (results not shown).
# APJ receptor [4] = assay: EC50 IP (µM)
# Source text: Table printed on a drawing sheet, FIGURE 3B
# Head of the field: EC50 IP (µM)
# Section band inside the table: Peptides with 525 Da PEG modification
# The patent's description of the figure: FIGS. 3A-C.
# First copying reader's note: Row 2 is a section heading spanning all columns; blanks inside names and sequences only mark line breaks within the printed cell.
# Where the first naming reader finds the target: passage: An “APJ agonist” should be understood to refer to a molecule that is able to activate the APJ receptor.
# FIGURE 4B = assay: FIGURE 4B
# Source text: Table printed on a drawing sheet, FIGURE 4B
# Section band inside the table: Peptides with triazole linker and 20 kDa PEG modification
# The patent's description of the figure: FIGS. 4A-B. In vitro stability of APJ agonists in plasma.
# First reader's note: Rows 3 and 9 of the grid are section headings spanning all columns (linker type of the 20 kDa PEGylated peptides).
# [5] = dose ranges from 5.5 to 88 μg/kg
substance,measurement,setting,value
{Thiopropionyl(20K-mPEG)}LLRP[hArg][Cha]SHKG[Oic][Nle]P[4-Cl—F]{FreeAcid} ({mPEG 20 kDa}-[Mpa]LLRP[hArg][Cha]SHKG[Oic][Nle]P[Phe(4-Cl)]-OH) [SEQ ID NO: 124],agonist activity relative to pyr apelin-13 (SEQ ID NO: 128),human APJ,potent and act as a full agonist
SEQ ID NO: 131: 20 kDa PEG-tetrakis(Atz-KFRRQRP[hArg][Cha]SHKG[Oic][Nle]P[4-Cl—F]) (KFRRQRP[hArg][Cha]SHKG[Oic][Nle]P[Phe(4-Cl)]; not fully specified (N-terminus); also: 20 kDa PEG carries four peptide copies),pEC50,APJ receptor [1],9.10
"[PE65;hArg68;Cha69;3-(1-(2-aminoethoxy(PEG9)ethyl)-1H-1,2,3-triazol-4-yl)Ala70;Oic74;Nle75;4-Cl-F77]Apelin-13(65-77) ([pGlu]RP[hArg][Cha][Atz](PEG10′)HKG[Oic][Nle]P[Phe(4-Cl)]) [SEQ ID NO: 23]",dp/dtmax,[2],dose dependent increase
same,dp/dtmin,[2],decrease
same,systolic pressure,[2],increases
same,Heart rate (HR) increase,"[3]; MI rats, intravenous infusion of 88 μg/kg accumulative dose",up to 10.6%
same,mean dp/dt max increase,[3]; MI rats,24.5%
same,other cardiac hemodynamic changes,[3]; [5],No other cardiac hemodynamic changes were observed
same,peripheral vascular resistant measurement such as mean arterial pressure,[3]; [5],No significant changes
same,mean dp/dt max increase,[3]; healthy rats,32%
SEQ ID NO: 130: 20 kDa PEG-bis(Atz-KFRRQRP[hArg][Cha]SHKG[Oic][Nle]P[4-Cl—F]) (KFRRQRP[hArg][Cha]SHKG[Oic][Nle]P[Phe(4-Cl)]; not fully specified (N-terminus); also: 20 kDa PEG carries two peptide copies),pEC50,APJ receptor [1],9.39
{Hydrogen}[PE]RP[hArg][Cha][Pra(NPeg9) ]HKG[Oic][Nle][4-Cl-F]{FreeAcid},pEC50,APJ receptor [4],6.88
Atz(20K-mPEG)- KFRRQRP[hArg][Cha]SHKG[Oic][Nle]P[4-Cl-F] [compound 49],"in vitro plasma stability (t1/2, min) | HUMAN",FIGURE 4B,176 min
same,"in vitro plasma stability (t1/2, min) | MOUSE",FIGURE 4B,55 min
same,"in vitro plasma stability (t1/2, min) | RAT",FIGURE 4B,193 min

# Source: patent US20160067347A1, “APJ RECEPTOR AGONISTS AND USES THEREOF” (AMGEN INC., priority 2012, published 2016)
